Here are results for five molecules from patent US20100189707A1, “Stable Enzymatic Peracid Generating Systems” (priority 2007, published 2010).

The subject of assay [1] is B. subtilis spores. The assay is described as follows: Killing of B. subtilis spores by PAA. The assay is classed as cell-based. Conditions: 15 min RT. How it is done:
In this Example, experiments conducted to determine the killing curve of peracetic acid (PAA) and PAA in conjunction with detergent (commercially available PUREX® [Dial] was used in this Example) for B. subtilis spores. In these experiments, the B. subtilis spores were prepared as known in the art (See e.g., Siccardi et al., J. Bacteriol., 121:13-19 [1975]). Assays were carried out in duplicate in 96-well, round bottomed microtiter plates (Costar) with peracetic acid (32 wt % in acetic acid; Aldrich). The PAA was serially diluted in either 50 mM KPO4 buffer, pH 7.1 (“Buffer”), or in a 1:500 dilution of Purex (original formula; Dial) in the same buffer (“Buffer+Det”) in a total volume of 50 μl. The amount of PAA added to the assay was 0, 0.4, 4 or 40 mM. A volume of 5 μl of the spore suspension, containing 10^9-10^10 spores, was then added to each well and the assay incubated for 15 min at RT. Ice cold LB (150 μl) (See e.g., Sambrook et al., “Molecular Cloning: A Laboratory Manual”, Second Edition (Cold Spring Harbor), [1989]) was then added to each well, mixed, and 100 μl transferred to a fresh 96-well plate. Serial dilutions of each solution were made (in a total volume of 100 μl/well). A volume of 5 μl of each dilution was spotted onto LA plates (Sambrook et al., supra), and incubated at 37° C. for 17-24 h. Colonies were counted and the % spore killing was determined relative to the respective controls (buffer alone or buffer+detergent, without peracid). The results are presented in Table 1, as an average of duplicates from one experiment. However, the experiment was done twice in duplicate with similar results.

For assay [2], the system named is B. subtilis spores. The assay is described as follows: MsAcT system generated PAA killing of B. subtilis spores in buffer or detergent. As to conditions: single reaction components in 400 mM KPO4 pH 7.1: 2 ppm S54V variant, 39 mM percarbonate, 100 mM PGDA. The assay is classed as cell-based. How it is done: In this experiment, sodium percarbonate was used as the source of H2O2. The final solution contained: 100 mM 1,2-propylene glycol diacetate, 2 ppm S54V variant, 39 mM sodium percarbonate (Technical grade 85%; yielding 100 mM effective H2O2) in 320 mM KPO4 pH 7.1 in a total volume of 800 μl. This mix (yield 40 mM PAA) was serially diluted to give additional mixes that yielded 4.9, 9.9 and 20.5 mM PAA. A mix with only 400 mM KPO4 pH 7.1 was used to determine total spore counts in the absence of PAA. The mixes were allowed to incubate at room temperature for 3 min. A volume of 180 μl of each of the mixes was then dispensed into duplicate wells of a round-bottomed 96-well plate (Costar) that contained 20 μl of the spore suspension used in Example 1, to yield a total volume of 200 μl in each well. The liquid was gently pipetted 4-5 times to ensure mixing of the components. The mixes were incubated with the spores for a further 15 or 30 minutes at room temperature. At the 15 and 30 minute time points, 20 μl were removed from each of the wells, added to wells in a fresh 96-well plate and serially diluted in LB to 10^−7 in a total volume of 100 μl. A volume of 5 μl from each dilution of each spore mixture was spotted onto an LA plate, allowed to dry and then incubated overnight at 37° C. Also at the 15 and 30 min time points, an appropriate volume was removed from each well and diluted sufficiently in dH2O to yield a measurable amount of PAA using the ABTS assay on scale with a standard, as described in Example 1. The results of the spore killing are presented as an average of the duplicates.
The experiment was repeated exactly as described except that a 1:500 dilution of Purex in 320 mM KPO4 pH 7.1, was used in place of the buffer. The results are presented in Table 3 (average of duplicates). Controls included various reaction components in 400 mM KPO4 pH 7.1 buffer: 2 ppm S54V variant, 2 ppm S54V variant with 39 mM percarbonate, 100 mM 1,2-propylene glycol diacetate, 100 mM 1,2-propylene glycol diacetate with 39 mM sodium percarbonate, 39 mM sodium percarbonate. […]

Another assay deals with S54V-MsAcT. The assay is described as follows: Enzymatic generation of PAA by S54V variant (ABTS assay). The assay is classed as biochemical, M. smegmatis. Conditions: for relative conversion rate to PAA for the three ester substrates: with S54V-MsAcT, same method as for PGDA. How it is done: In these experiments, methods known in the art were used to determine the concentration of PAA (See e.g., Pinkernell et al., Analyst, 122:567-571 [1997]). In this ABTS assay, 100 μl of the solution to be analyzed was added to 1 ml of 125 mM potassium citrate buffer, pH 5.0, containing 1.0 mM 3-ethylbenzthiazoline-6-sulfonic acid (ABTS) and 50 uM KI, and allowed to incubate at RT for 3 minutes. The absorbance was measured at 420 nm in a HP 8452A Diode Array Spectrophotomer and compared to a standard curve prepared using authentic standard. The enzymatic reactions to form PAA were initiated with addition of enzyme and conducted at RT. Aliquots were withdrawn from the reactions at the indicated times and analyzed for PAA concentration. The sodium percarbonate used in these experiments was obtained from Kemira and the hydrogen peroxide was obtained from EM Science.
A solution of 39 mM sodium percarbonate (sodium carbonate peroxyhydrate, Technical grade 85%, yielding 100 mM effective H2O2; Kemira) was prepared in 320 mM KPO4 pH 7.1. […] To compare the enzymatic production of PAA from prepared H2O2 (32 wt %, Aldrich) or H2O2 formed from percarbonate under identical pH conditions, two reactions were prepared. One reaction contained 100 mM H2O2 in 320 mM KPO4, pH 7.6, 100 mM 1,2-propylene glycol diacetate (Aldrich), and 2 ppm variant S54V. The absolute concentration of H2O2 was assumed from the value stated on the label and not confirmed by analysis. The second reaction contained 39 mM sodium percarbonate in 320 mM KPO4, pH 7.1, 100 mM 1,2-propylene glycol diacetate, and 2 ppm S54V. The reactions were initiated by the addition of the enzyme. Samples were withdrawn at the times indicated and the concentration of PAA determined as described in Example 1.
In order to study the use of different propyl alcohol acetate ester substrates, the generation of PAA was carried out using the same general method described above for PGDA, but using either propyl acetate or triacetin as the ester substrate. […]
In this Example, experiments to assess the amount of peracetic acid produced from glucose and propyleneglycol diacetate are described. […] Further samples were withdrawn at the times indicated in FIG. 2, and the concentration of PAA determined as described above. No PAA was detected before the addition of enzyme and approximately 9.5 mM PAA was produced from the 20 mM 1,2-propylene glycol diacetate and the H2O2 produced from the glucose/glucose oxidase reaction.
In these experiments, three reactions were prepared, consisting of 320 mM KPO4 pH 7.1, 100 mM 1,2-propylene glycol diacetate (Aldrich), and 100 mM sodium percarbonate. […] Samples were withdrawn at the times indicated in the Figure, and the concentration of PAA determined as described above.

Where only a bound is given, the exact number is not on record here.

As for `CC(=O)OO` [PAA, peracetic acid], the “% Spore Killing” value was 0.05% in the assay on B. subtilis spores [1] (Buffer + Detergent, 0.4 mM PAA); 86.4% with B. subtilis spores [1] (Buffer + Detergent, 4 mM PAA); 100% with B. subtilis spores [1] (Buffer + Detergent, 40 mM PAA); 86.4% in the assay with B. subtilis spores [1] (Buffer, 0.4 mM PAA); 90% in the assay with B. subtilis spores [1] (Buffer, 4 mM PAA); 100% in the assay on B. subtilis spores [1] (Buffer, 40 mM PAA). Further, the Spores/ml with B. subtilis spores [1] (Buffer + Detergent, 0.4 mM PAA) is 1.7 × 10^9 Spores/ml; in the assay with B. subtilis spores [1] (Buffer + Detergent, 4 mM PAA) it was 2.4 × 10^8 Spores/ml; in the assay with B. subtilis spores [1] (Buffer + Detergent, 40 mM PAA), 0 Spores/ml; with B. subtilis spores [1] (Buffer, 0.4 mM PAA), 2.4 × 10^8 Spores/ml; in the assay on B. subtilis spores [1] (Buffer, 4 mM PAA), 1.6 × 10^8 Spores/ml; in the assay with B. subtilis spores [1] (Buffer, 40 mM PAA) it was 0 Spores/ml.
Take `CC(=O)OCC(C)OC(C)=O` (stereo not shown) [PGDA, 1,2-propylene glycol diacetate]: in the assay on B. subtilis spores [2], the “spores/ml after a 30 min incubation” value is given as 5×10^9 spores/ml. In addition, the “relative conversion rate to PAA for the three ester substrates” value with S54V-MsAcT was “PGDA >triacetin >propyl acetate”.
Take `CCCOC(C)=O` [propyl acetate]: the “relative conversion rate to PAA for the three ester substrates” value in the assay with S54V-MsAcT is listed as “PGDA >triacetin >propyl acetate”.
Turning to `O=C([O-])[O-].O=C([O-])[O-].OO.OO.OO.[Na+].[Na+].[Na+].[Na+]` [sodium percarbonate], in the assay with B. subtilis spores [2], the “spores/ml after a 30 min incubation” value was 1×10^9 spores/ml.

B1: S54V variant: M. smegmatis acyl transferase variant comprising the S54V substitution (protein)
chain: MAKRILCFGDSLTWGWVPVEDGAPTERFAPDVRWTGVLAQQLGADFEVIEEGLVARTTNIDDPTDPRLNGASYLPSCLATHLPLDLVIIMLGTNDTKAYFRRTPLDIALGMSVLVTQVLTSAGGVGTTYPAPKVLVVSPPPLAPMPHPWFQLIFEGGEQKTTELARVYSALASFMKVPFFDAGSVISTDGVDGIHFTEANNRDLGVALAEQVRSLL
In the case of B1, the “spores/ml after a 30 min incubation” value with B. subtilis spores [2] is on record as 5×10^9 spores/ml. Further, in the assay on S54V-MsAcT (20 mM 1,2-propylene glycol diacetate, H2O2 from glucose/glucose oxidase, 2 ppm S54V variant, RT), the PAA produced entry is given as “approximately 9.5 mM”. In addition, in the assay on S54V-MsAcT (2 ppm S54V variant, 100 mM PGDA, 100 mM sodium percarbonate, 21, 40, 60° C.), the “temperature up to which the enzyme system is functional” value is at least 60 °C.
